Source: article PMC5437114, “Exploring Pharmacological Mechanisms of Lavender (Lavandula angustifolia) Essential Oil on Central Nervous System Targets” (Frontiers in Pharmacology, 2017)

Target: T1, serotonin transporter (SERT) (Rattus norvegicus, UniProt P31652)
T1 construct: 225 μl of rat cortex suspension; from tissue; host or cells: rat (Sprague Dawley) brain cortex homogenate
Experiment: Serotonin transporter assay ([3H]-citalopram binding assay)
Conditions: rat cortex

T1 sequence (P31652 whole entry): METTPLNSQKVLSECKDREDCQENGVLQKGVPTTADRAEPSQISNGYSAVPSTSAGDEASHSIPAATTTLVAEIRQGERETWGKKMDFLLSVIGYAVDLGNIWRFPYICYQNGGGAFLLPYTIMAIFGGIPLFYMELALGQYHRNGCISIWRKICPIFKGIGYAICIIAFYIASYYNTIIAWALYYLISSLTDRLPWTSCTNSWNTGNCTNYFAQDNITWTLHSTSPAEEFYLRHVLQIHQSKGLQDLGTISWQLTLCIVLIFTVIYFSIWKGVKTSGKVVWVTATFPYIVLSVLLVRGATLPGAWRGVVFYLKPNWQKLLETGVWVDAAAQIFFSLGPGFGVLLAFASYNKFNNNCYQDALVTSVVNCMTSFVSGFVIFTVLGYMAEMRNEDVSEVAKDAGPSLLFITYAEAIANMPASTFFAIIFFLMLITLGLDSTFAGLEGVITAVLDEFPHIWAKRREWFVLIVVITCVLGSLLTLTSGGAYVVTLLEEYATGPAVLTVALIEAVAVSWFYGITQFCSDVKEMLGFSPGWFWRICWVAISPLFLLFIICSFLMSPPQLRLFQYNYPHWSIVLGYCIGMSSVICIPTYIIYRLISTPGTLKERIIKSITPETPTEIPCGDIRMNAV

## C=CC(C)(O)CCC=C(C)C (centres unmarked) [Linalool, linalool]
  Activity in the SERT assay (displacement of 3H-citalopram), in words: effect was also detected

## C=CC(C)(CCC=C(C)C)OC(C)=O (centres unmarked) [Linalyl acetate, linalyl acetate]
  Activity in the SERT assay (displacement of 3H-citalopram), in words: did not show affinity
